Active and inactive are the calls of the source. The rule behind the calls is not given here.
What was measured:
MDA-MB-231 [1] = test: Antiproliferative activity against human MDA-MB-231 cells assessed as inhibition of cell growth; format: functional, cell-based
HeLa [2] = test: Antiproliferative activity against human HeLa cells assessed as inhibition of cell growth; format: functional, cell-based
A549 [3] = test: Antiproliferative activity against human A549 cells assessed as inhibition of cell growth; format: functional, cell-based
[4] = Toxicity in orthotopic mouse inoculated with mouse 4T1 cells assessed as sparse and dull hair at 10 mg/kg, ip administered every day measured after 8 days; format: organism-based; conditions: in vivo, 192 h, time 8 day
4T1 [5] = test: Antitumor activity against mouse 4T1 cells inoculated orthotopic mouse assessed as decrease in tumor weight at 10 mg/kg, ip administered every day measured after 14 days; format: functional, organism-based; conditions: time 14.0 day
4T1 [6] = test: Antitumor activity against mouse 4T1 cells inoculated orthotopic mouse assessed as change in gross appearance of tumor at 10 mg/kg, ip administered every day measured after 14 days; format: functional, organism-based; conditions: time 14.0 day
4T1 [7] = test: Antitumor activity against mouse 4T1 cells inoculated orthotopic mouse assessed as reduction in tumor volume at 10 mg/kg, ip administered every day measured after 14 days (reference value: 623 mm3); format: functional; conditions: time 14 day
4T1 [8] = test: Antitumor activity against mouse 4T1 cells inoculated orthotopic mouse assessed as tumor growth inhibition ratio at 10 mg/kg, ip administered every day measured after 14 days; format: functional; design: scale not given: the % may be the effect or the level left; conditions: time 14 day
[9] = Toxicity in orthotopic mouse inoculated with mouse 4T1 cells assessed as body weight loss at 10 mg/kg, ip administered every day measured after 14 days; format: organism-based; conditions: in vivo, 336 h, time 14 day
[10] = Toxicity in orthotopic mouse inoculated with mouse 4T1 cells assessed as hardened skin at 10 mg/kg, ip administered every day measured after 8 days; format: organism-based; conditions: in vivo, 192 h, time 8 day
4T1 [11] = test: Antitumor activity against mouse 4T1 cells inoculated orthotopic mouse assessed as apoptotic cells in tumor tissue by TUNEL assay (reference value: 3.13%); format: functional
[12] = Toxicity in orthotopic mouse inoculated with mouse 4T1 cells assessed as liver cell swelling at 10 mg/kg, ip administered every day measured after 14 days by hematoxylin and eosin staining based assay; format: organism-based; conditions: in vivo, 336 h, time 14 day
MDA-MB-231 [13] = test: Induction of cell cycle arrest in human MDA-MB-231 cells assessed as accumulation of cells in S phase at 10 uM incubated for 24 hrs by PI staining based flow cytometry analysis (reference value: 16.61 %); format: functional
[14] = Toxicity in orthotopic mouse inoculated with mouse 4T1 cells assessed as appearance of lesions in spleen at 10 mg/kg, ip administered every day measured after 14 days by hematoxylin and eosin staining based assay; format: organism-based; conditions: in vivo, 336 h, time 14 day
MDA-MB-231 [15] = test: Induction of apoptosis in human MDA-MB-231 cells assessed as viable cells at 10 uM incubated for 24 hrs by annexin V-FITC and PI staining based flow cytometry analysis (reference value: 93.6 %); format: functional; conditions: read-out: Activity
[16] = Acute toxicity in male Kunming mouse assessed as clinical signs of toxicity in eyes at 100 to 250 mg/kg, ip single dose measured up to 2 weeks; format: organism-based; conditions: in vivo, 336 h, dose 100-250 mg/kg
[17] = Acute toxicity in male Kunming mouse assessed as clinical signs of toxicity in skin at 100 to 250 mg/kg, ip single dose measured up to 2 weeks; format: organism-based; conditions: in vivo, 336 h, dose 100-250 mg/kg
[18] = Toxicity in orthotopic mouse inoculated with mouse 4T1 cells assessed as appearance of lesions in heart at 10 mg/kg, ip administered every day measured after 14 days by hematoxylin and eosin staining based assay; format: organism-based; conditions: in vivo, 336 h, time 14 day
MDA-MB-231 [19] = test: Induction of cell cycle arrest in human MDA-MB-231 cells assessed as accumulation of cells in G1 phase at 10 uM incubated for 24 hrs by PI staining based flow cytometry analysis (reference value: 74.44 %); format: functional
[20] = Toxicity in orthotopic mouse inoculated with mouse 4T1 cells assessed as appearance of lesions in lung at 10 mg/kg, ip administered every day measured after 14 days by hematoxylin and eosin staining based assay; format: organism-based; conditions: in vivo, 336 h, time 14 day
[21] = Acute toxicity in male Kunming mouse assessed as body weight gain at 100 to 250 mg/kg, ip single dose measured up to 2 weeks; format: organism-based; conditions: in vivo, 336 h, dose 100-250 mg/kg
[22] = Acute toxicity in Kunming mouse assessed as mortality at 150 mg/kg, ip single dose; format: organism-based; conditions: in vivo, read-out: Activity
[23] = Acute toxicity in female Kunming mouse assessed as clinical signs of toxicity in skin at 100 to 250 mg/kg, ip single dose measured up to 2 weeks; format: organism-based; conditions: in vivo, 336 h, dose 100-250 mg/kg
[24] = Acute toxicity in Kunming mouse assessed as pathological changes in kidney at 100 to 250 mg/kg, ip single dose by hematoxylin and eosin staining based assay; format: organism-based; conditions: in vivo, dose 100-250 mg/kg
[25] = Acute toxicity in Kunming mouse assessed as pathological changes in liver at 100 to 250 mg/kg, ip single dose by hematoxylin and eosin staining based assay; format: organism-based; conditions: in vivo, dose 100-250 mg/kg
HeLa [26] = test: cells; format: functional, cell-based; conditions: Homo sapiens, 74 h
Description: Antiproliferative activity against human HeLa cells assessed as inhibition of cell growth measured after 74 hrs by SRB assay

MDA-MB-231 [27] = test: Induction of cell cycle arrest in human MDA-MB-231 cells assessed as accumulation of cells in G2 phase at 10 uM incubated for 24 hrs by PI staining based flow cytometry analysis (reference value: 8.95 %); format: functional
[28] = Toxicity in orthotopic mouse inoculated with mouse 4T1 cells assessed as side effects at 10 mg/kg, ip administered every day measured after 14 days; format: organism-based; conditions: in vivo, 336 h, time 14 day
[29] = Acute toxicity in male Kunming mouse assessed as clinical signs of toxicity in fur at 100 to 250 mg/kg, ip single dose measured up to 2 weeks; format: organism-based; conditions: in vivo, 336 h, dose 100-250 mg/kg
MDA-MB-231 [30] = test: Induction of cell cycle arrest in human MDA-MB-231 cells assessed as accumulation of cells in G2/G1 phase at 10 uM incubated for 24 hrs by PI staining based flow cytometry analysis (reference value: 1.80 %); format: functional
MDA-MB-231 [31] = test: Induction of apoptosis in human MDA-MB-231 cells assessed as necrotic cells at 10 uM incubated for 24 hrs by annexin V-FITC and PI staining based flow cytometry analysis (reference value: 0.68 %); format: functional
[32] = Acute toxicity in Kunming mouse assessed as pathological changes in lung at 100 to 250 mg/kg, ip single dose by hematoxylin and eosin staining based assay; format: organism-based; conditions: in vivo, dose 100-250 mg/kg
MDA-MB-231 [33] = test: Induction of apoptosis in human MDA-MB-231 cells assessed as early apoptotic cells at 10 uM incubated for 24 hrs by annexin V-FITC and PI staining based flow cytometry analysis (reference value: 4.66 %); format: functional
[34] = Toxicity in orthotopic mouse inoculated with mouse 4T1 cells assessed as appearance of lesions in kidney at 10 mg/kg, ip administered every day measured after 14 days by hematoxylin and eosin staining based assay; format: organism-based; conditions: in vivo, 336 h, time 14 day
HepG2 = test: Antiproliferative activity against human HepG2 cells assessed as inhibition of cell growth measured after 74 hrs by SRB assay; format: functional, cell-based; conditions: HepG2, 74 h
[35] = Acute toxicity in Kunming mouse assessed as mortality at 100 mg/kg, ip single dose; format: organism-based; conditions: in vivo
MDA-MB-231 [36] = test: cells; format: functional, cell-based; conditions: Homo sapiens, MDA-MB-231, 74 h
Description: Antiproliferative activity against human MDA-MB-231 cells assessed as inhibition of cell growth measured after 74 hrs by SRB assay

[37] = Acute toxicity in female Kunming mouse assessed as clinical signs of toxicity in fur at 100 to 250 mg/kg, ip single dose measured up to 2 weeks; format: organism-based; conditions: in vivo, 336 h, dose 100-250 mg/kg
[38] = Acute toxicity in female Kunming mouse assessed as drug tolerance at 100 to 250 mg/kg, ip single dose measured up to 2 weeks; format: organism-based; conditions: in vivo, 336 h, dose 100-250 mg/kg
[39] = Acute toxicity in Kunming mouse assessed as mortality at 250 mg/kg, ip single dose; format: organism-based; conditions: in vivo, read-out: Activity
[40] = Acute toxicity in Kunming mouse assessed as pathological changes in spleen at 100 to 250 mg/kg, ip single dose by hematoxylin and eosin staining based assay; format: organism-based; conditions: in vivo, dose 100-250 mg/kg
A549 [41] = test: cells; format: functional, cell-based; conditions: Homo sapiens, A549, 74 h
Description: Antiproliferative activity against human A549 cells assessed as inhibition of cell growth measured after 74 hrs by SRB assay

[42] = Toxicity in orthotopic mouse inoculated with mouse 4T1 cells assessed as appearance of lesions in liver at 10 mg/kg, ip administered every day measured after 14 days by hematoxylin and eosin staining based assay; format: organism-based; conditions: in vivo, 336 h, time 14 day
[43] = Acute toxicity in Kunming mouse assessed as mortality at 200 mg/kg, ip single dose; format: organism-based; conditions: in vivo, read-out: Activity
[44] = Acute toxicity in female Kunming mouse assessed as clinical signs of toxicity in eyes at 100 to 250 mg/kg, ip single dose measured up to 2 weeks; format: organism-based; conditions: in vivo, 336 h, dose 100-250 mg/kg
MDA-MB-231 [45] = test: Induction of apoptosis in human MDA-MB-231 cells assessed as late apoptotic cells at 10 uM incubated for 24 hrs by annexin V-FITC and PI staining based flow cytometry analysis (reference value: 1.02 %); format: functional
[46] = Acute toxicity in Kunming mouse assessed as pathological changes in heart at 100 to 250 mg/kg, ip single dose by hematoxylin and eosin staining based assay; format: organism-based; conditions: in vivo, dose 100-250 mg/kg
[47] = Acute toxicity in male Kunming mouse assessed as drug tolerance at 100 to 250 mg/kg, ip single dose measured up to 2 weeks; format: organism-based; conditions: in vivo, 336 h, dose 100-250 mg/kg
[48] = Acute toxicity in female Kunming mouse assessed as body weight gain at 100 to 250 mg/kg, ip single dose measured up to 2 weeks; format: organism-based; conditions: in vivo, 336 h, dose 100-250 mg/kg

SMILES: Cc1ccc(S(=O)(=O)N2CCOC23C=CC(=O)C=C3)cc1
- IC50 (MDA-MB-231 [1]): 390 nM
- IC50 (HeLa [2]): 710 nM
- IC50 (A549 [3]): 330 nM

SMILES: COc1cccc2c1C(=O)c1c(O)c3c(c(O)c1C2=O)C[C@@](O)(C(=O)CO)C[C@@H]3O[C@H]1C[C@H](N)[C@H](O)[C@H](C)O1 [DOXORUBICIN]
- Activity [4]: Toxic
- Activity (4T1 [5]): Active
- Activity (4T1 [6]): Active
- Activity (4T1 [7]): 265 mm3
- Activity (4T1 [8]): 50%
- Activity [9]: 19%
- Activity [10]: Toxic
- Activity (4T1 [11]): 82.57%
- Activity [12]: Toxic

SMILES: Cc1ccc(S(=O)(=O)N2C(=O)COC23C=CC(=O)C=C3)cc1
- Activity (MDA-MB-231 [13]): 24.06%
- Activity (4T1 [5]): Active
- Activity [14]: Non-Toxic
- viability at 10 µM (MDA-MB-231 [15]): 85.4%
- Activity [16]: Non-Toxic
- Activity [17]: Non-Toxic
- Activity [18]: Non-Toxic
- Activity (4T1 [6]): Active
- Activity (MDA-MB-231 [19]): 65.65%
- Activity [20]: Non-Toxic
- Activity [21]: Non-Toxic
- Activity (4T1 [7]): 376 mm3
- mortality [22]: 30%
- Activity [23]: Non-Toxic
- Activity [24]: Non-Toxic
- Activity [25]: Non-Toxic
- IC50 (HeLa [26]): 180 nM
- Activity (MDA-MB-231 [27]): 10.29%
- Activity [28]: Non-Toxic
- Activity (4T1 [8]): 39%
- Activity [29]: Non-Toxic
- Activity (MDA-MB-231 [30]): 1.8%
- Activity (MDA-MB-231 [31]): 0.72%
- Activity [32]: Non-Toxic
- Activity (MDA-MB-231 [33]): 10.9%
- Activity [34]: Non-Toxic
- IC50 (HepG2): > 10000 nM
- Activity [9]: Non-Toxic
- Activity [35]: Non-Toxic
- IC50 (MDA-MB-231 [36]): 70 nM
- Activity [37]: Non-Toxic
- Activity [38]: Non-Toxic
- mortality [39]: 60%
- Activity [40]: Non-Toxic
- IC50 (A549 [41]): 110 nM
- Activity [42]: Non-Toxic
- mortality [43]: 50%
- Activity (4T1 [11]): 95.64%
- Activity [44]: Non-Toxic
- Activity (MDA-MB-231 [45]): 3%
- Activity [46]: Non-Toxic
- Activity [47]: Non-Toxic
- Activity [48]: Non-Toxic
